Eleven molecules from patent publication US10231954B2, “Neurodegenerative therapies” (LYTIX BIOPHARMA AS, priority 2014, dated 2019) can be followed below.

What all share (type): biochemical
One assay has as its target MAPKAP-K2 (Homo sapiens, UniProt P49137). Description: Kinase profiling MAPKAP-K2. The note with it: for remaining activity at 100 µM: read-out: residual kinase activity, MAPKAP-K2. An excerpt:
(§1) Any value less that 25 is considered to be highly significant inhibition.

For another assay, the target named is DAPK1 (Homo sapiens, UniProt P53355). Description: Kinase profiling DAPK1. The note with it: for remaining activity at 100 µM: read-out: residual kinase activity, DAPK1.
DAPK1, sequence (P53355 whole entry, species assumed): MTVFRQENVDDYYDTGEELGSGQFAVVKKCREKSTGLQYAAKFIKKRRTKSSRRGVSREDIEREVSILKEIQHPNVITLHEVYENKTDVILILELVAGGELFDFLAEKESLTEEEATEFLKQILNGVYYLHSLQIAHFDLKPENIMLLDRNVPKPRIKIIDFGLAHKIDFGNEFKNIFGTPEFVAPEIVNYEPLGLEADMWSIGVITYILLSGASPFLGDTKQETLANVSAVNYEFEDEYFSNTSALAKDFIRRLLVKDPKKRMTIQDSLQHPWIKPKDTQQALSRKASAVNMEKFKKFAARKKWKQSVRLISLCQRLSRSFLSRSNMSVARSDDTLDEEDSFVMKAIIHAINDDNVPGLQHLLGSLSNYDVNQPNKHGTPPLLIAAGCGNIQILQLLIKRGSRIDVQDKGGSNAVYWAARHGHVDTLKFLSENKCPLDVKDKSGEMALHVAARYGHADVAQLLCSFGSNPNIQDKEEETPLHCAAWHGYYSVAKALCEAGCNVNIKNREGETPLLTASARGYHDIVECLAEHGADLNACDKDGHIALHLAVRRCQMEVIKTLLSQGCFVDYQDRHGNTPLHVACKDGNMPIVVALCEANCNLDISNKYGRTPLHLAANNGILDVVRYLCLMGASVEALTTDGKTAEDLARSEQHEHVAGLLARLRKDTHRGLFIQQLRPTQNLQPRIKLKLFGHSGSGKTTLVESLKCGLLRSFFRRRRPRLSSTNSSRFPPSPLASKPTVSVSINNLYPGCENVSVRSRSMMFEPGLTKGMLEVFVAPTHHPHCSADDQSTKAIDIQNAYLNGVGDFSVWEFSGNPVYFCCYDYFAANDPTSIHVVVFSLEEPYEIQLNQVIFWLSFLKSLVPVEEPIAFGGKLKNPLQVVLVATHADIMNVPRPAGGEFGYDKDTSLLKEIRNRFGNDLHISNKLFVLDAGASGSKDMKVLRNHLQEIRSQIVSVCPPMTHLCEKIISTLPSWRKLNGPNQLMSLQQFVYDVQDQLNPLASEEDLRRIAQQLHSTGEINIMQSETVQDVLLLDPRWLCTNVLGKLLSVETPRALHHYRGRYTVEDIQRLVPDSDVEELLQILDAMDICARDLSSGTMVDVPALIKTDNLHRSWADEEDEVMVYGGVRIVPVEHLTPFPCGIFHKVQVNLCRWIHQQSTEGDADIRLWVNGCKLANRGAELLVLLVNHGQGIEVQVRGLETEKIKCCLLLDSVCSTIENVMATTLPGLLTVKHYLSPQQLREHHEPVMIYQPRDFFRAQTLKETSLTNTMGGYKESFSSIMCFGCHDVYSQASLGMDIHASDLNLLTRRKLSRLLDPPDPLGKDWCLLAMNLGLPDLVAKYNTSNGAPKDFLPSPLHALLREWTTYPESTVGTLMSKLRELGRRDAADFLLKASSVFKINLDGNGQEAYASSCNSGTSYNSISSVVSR
Source text: as §1

The next assay addresses MARK1 (Homo sapiens, UniProt Q9P0L2). The assay is described as follows: Kinase profiling MARK1. The settings on record: for remaining activity at 100 µM: read-out: residual kinase activity, MARK1.
Source text: as §1

Another assay deals with SIK3 (Homo sapiens, UniProt Q9Y2K2). Description: Kinase profiling SIK3. The settings on record: for remaining activity at 100 µM: read-out: residual kinase activity, SIK3.
SIK3, sequence (Q9Y2K2 whole entry, species assumed): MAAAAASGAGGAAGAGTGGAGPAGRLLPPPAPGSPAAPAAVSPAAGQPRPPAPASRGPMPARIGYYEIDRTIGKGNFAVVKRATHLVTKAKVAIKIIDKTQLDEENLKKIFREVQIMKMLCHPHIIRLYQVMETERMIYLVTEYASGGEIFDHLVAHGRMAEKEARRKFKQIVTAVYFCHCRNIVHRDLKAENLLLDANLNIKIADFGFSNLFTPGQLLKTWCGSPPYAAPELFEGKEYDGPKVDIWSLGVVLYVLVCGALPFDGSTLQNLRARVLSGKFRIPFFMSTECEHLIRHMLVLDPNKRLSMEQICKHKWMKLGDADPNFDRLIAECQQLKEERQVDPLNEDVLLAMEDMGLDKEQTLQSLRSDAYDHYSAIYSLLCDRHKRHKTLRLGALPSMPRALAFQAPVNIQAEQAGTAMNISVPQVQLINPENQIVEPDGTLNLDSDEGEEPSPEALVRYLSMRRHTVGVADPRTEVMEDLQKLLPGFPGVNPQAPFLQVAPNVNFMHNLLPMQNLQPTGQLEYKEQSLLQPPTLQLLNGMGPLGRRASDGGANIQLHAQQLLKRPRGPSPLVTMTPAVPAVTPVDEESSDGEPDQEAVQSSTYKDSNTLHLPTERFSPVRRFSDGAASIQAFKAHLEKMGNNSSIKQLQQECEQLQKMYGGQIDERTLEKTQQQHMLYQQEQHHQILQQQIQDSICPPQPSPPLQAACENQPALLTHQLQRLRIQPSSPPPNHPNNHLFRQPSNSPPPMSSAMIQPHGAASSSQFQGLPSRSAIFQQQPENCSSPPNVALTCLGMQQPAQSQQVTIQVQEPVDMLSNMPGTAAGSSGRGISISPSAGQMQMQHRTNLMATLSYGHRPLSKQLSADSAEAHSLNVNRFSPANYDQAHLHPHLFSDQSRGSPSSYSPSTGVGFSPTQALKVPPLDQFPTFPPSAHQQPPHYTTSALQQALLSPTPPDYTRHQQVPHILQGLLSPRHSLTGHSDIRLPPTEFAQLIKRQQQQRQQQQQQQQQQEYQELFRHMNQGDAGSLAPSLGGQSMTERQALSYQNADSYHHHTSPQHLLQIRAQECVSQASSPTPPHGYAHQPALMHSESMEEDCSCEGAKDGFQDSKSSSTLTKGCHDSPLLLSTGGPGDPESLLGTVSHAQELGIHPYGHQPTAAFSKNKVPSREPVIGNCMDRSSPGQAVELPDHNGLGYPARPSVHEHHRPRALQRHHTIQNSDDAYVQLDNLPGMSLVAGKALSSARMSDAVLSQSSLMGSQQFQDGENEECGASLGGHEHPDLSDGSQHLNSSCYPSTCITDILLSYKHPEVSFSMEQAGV
Source text: as §1

The target in a further assay is T1, ASK1 (Homo sapiens, UniProt Q99683).
T1 sequence (Q99683 1-1374): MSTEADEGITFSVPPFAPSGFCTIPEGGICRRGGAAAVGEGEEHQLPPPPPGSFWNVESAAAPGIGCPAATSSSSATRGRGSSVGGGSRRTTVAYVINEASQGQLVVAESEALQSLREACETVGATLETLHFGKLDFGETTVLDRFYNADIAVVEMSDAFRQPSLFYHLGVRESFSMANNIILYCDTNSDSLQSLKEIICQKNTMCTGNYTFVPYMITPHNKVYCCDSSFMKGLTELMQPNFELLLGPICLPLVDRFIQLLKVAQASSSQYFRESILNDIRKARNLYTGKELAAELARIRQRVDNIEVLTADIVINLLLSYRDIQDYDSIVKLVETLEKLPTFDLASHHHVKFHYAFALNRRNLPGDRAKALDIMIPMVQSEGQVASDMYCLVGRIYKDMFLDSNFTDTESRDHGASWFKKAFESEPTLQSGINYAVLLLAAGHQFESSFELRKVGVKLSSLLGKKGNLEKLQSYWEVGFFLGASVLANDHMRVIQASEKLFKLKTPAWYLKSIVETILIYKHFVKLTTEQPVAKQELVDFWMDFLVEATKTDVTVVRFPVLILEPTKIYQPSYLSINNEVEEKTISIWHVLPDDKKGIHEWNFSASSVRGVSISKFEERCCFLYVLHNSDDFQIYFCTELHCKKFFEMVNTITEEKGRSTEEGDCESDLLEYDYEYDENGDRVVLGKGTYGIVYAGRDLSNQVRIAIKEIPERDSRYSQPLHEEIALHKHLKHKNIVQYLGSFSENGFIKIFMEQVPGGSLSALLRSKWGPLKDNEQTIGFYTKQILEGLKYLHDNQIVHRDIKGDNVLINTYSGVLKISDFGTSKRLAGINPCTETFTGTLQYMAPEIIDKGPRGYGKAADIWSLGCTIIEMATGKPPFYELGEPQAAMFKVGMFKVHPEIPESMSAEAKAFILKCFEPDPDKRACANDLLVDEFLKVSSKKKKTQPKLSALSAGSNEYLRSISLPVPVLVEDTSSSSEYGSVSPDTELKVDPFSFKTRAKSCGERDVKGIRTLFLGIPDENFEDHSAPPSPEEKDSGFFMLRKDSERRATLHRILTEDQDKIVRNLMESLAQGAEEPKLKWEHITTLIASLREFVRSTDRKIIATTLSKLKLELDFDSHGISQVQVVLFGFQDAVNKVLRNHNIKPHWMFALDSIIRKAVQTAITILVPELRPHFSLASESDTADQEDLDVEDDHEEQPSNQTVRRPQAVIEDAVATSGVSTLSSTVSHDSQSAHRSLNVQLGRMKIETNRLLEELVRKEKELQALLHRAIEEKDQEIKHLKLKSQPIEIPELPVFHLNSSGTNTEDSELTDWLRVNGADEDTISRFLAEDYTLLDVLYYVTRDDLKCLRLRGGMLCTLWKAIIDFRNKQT
Description: Kinase profiling ASK1. The settings on record: for remaining activity at 100 µM: read-out: residual kinase activity, ASK1.
Source text: as §1

In another assay the target is CSK (Homo sapiens, UniProt P41240). Description: Kinase profiling CSK. The note with it: for remaining activity at 100 µM: read-out: residual kinase activity, CSK.
CSK, sequence (P41240 whole entry, species assumed): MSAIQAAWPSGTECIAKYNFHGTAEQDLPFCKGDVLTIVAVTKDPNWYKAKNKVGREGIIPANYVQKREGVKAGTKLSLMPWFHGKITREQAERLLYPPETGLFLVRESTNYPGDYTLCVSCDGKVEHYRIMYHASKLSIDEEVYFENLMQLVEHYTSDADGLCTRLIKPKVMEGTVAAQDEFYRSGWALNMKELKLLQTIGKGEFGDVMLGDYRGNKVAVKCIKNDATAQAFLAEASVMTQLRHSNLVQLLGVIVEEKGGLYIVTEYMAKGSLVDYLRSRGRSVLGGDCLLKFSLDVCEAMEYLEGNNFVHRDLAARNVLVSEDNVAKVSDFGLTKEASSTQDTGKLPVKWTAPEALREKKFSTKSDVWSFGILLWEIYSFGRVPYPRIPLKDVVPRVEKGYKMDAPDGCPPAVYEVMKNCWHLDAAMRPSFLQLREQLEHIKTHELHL
Source text: as §1

Another assay addresses T2, EPH-B1 (Homo sapiens, UniProt P54762).
T2 sequence (P54762 18-984): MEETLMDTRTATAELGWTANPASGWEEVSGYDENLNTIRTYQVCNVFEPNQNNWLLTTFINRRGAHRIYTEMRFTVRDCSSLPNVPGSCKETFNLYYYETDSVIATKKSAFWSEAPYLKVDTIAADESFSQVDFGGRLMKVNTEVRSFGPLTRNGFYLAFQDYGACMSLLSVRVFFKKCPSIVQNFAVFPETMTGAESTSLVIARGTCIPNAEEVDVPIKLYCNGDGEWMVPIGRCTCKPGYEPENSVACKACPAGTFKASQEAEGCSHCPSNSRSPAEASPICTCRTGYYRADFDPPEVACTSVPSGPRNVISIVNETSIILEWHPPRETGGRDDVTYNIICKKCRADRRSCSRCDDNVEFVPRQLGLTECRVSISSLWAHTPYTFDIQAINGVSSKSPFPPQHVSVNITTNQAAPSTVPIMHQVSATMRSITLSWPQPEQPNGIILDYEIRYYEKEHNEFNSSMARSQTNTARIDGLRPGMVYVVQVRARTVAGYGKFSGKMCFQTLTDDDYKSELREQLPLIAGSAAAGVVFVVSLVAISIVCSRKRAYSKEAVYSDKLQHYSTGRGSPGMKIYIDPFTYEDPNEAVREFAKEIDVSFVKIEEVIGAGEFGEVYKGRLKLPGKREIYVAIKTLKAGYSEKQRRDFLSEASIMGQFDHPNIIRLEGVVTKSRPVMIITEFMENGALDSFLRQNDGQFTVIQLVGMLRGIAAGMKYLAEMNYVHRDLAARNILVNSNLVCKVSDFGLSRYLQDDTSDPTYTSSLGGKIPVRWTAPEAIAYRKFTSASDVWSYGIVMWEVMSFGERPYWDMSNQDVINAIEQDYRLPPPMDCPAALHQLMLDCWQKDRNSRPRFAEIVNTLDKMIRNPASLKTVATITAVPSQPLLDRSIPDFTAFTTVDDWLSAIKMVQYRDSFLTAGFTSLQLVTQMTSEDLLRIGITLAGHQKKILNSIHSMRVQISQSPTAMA
The assay is described as follows: Kinase profiling EPH-B1. The settings on record: for remaining activity at 100 µM: read-out: residual kinase activity, EPH-B1.
Source text: as §1

[1] abbreviates: 100 micromolar inhibitor concentration, 100 is no change.
Setting [2] is: 100 micromolar inhibitor, 100 = no change.

Read-outs that look alike come from different tables or passages of the source.

MARK1, sequence (Q9P0L2 whole entry, species assumed): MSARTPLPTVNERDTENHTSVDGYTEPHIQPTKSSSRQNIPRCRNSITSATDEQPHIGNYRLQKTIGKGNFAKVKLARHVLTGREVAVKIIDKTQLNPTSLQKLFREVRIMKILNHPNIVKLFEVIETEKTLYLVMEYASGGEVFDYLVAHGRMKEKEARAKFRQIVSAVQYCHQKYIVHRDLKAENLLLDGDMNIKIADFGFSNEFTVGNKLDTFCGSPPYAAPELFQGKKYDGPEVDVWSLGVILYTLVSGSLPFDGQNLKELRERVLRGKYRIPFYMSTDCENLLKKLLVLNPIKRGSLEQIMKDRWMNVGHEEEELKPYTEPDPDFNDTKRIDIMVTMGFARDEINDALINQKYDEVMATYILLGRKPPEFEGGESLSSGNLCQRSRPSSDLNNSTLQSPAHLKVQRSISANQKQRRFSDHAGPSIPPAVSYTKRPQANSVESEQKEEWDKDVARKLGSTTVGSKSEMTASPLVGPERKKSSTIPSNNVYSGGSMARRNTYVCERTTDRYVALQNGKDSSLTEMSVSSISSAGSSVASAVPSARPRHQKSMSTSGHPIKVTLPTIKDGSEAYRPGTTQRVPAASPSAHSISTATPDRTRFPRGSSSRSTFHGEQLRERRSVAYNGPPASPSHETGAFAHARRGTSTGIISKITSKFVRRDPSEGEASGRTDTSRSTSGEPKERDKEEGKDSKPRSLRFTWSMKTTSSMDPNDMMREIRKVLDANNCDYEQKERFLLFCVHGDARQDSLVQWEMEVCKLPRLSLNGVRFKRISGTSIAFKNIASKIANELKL
MAPKAP-K2, sequence (P49137 whole entry, species assumed): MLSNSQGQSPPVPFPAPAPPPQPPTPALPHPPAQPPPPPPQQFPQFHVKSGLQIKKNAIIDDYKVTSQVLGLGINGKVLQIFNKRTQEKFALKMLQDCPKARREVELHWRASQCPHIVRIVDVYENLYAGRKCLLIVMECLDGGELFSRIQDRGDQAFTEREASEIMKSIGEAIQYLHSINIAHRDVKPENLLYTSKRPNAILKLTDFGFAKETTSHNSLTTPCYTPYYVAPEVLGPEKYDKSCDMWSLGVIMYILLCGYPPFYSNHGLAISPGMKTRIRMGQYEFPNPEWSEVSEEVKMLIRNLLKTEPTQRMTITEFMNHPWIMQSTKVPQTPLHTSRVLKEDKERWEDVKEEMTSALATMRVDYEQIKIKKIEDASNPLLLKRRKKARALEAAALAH

Turning to `CC(=O)Nc1nc2cc(O)ccc2s1` [Compound 01-66, N-(5-hydroxybenzo[d]thiazol-2-yl)acetamide], the remaining activity at 100 µM on MAPKAP-K2 came out at 77%; on DAPK1 it was 44%; at MARK1 it was 56%; at SIK3 it was 57%; on ASK1, 70%; on CSK it was 92%. The remaining activity at 100 µM on EPH-B1 is 93%.

As to `CC(=O)Nc1nc2ccc(O)cc2s1` [Compound 01-71], the remaining activity at 100 µM was found to be 46% at MAPKAP-K2 (setting [1]); 21% on DAPK1 (setting [1]); 33% at MARK1 (setting [1]); 46% on SIK3 (setting [1]); 53% at ASK1 (setting [1]); 78% on CSK (setting [1]). Further, the remaining activity at 100 µM at EPH-B1 (setting [1]) came out at 86%.

As for `CC(=O)Nc1nc2ccc(C(F)(F)F)cc2s1` [Compound 01-90], the remaining activity at 100 µM worked out at 90% at MAPKAP-K2 (setting [1]); 85% at DAPK1 (setting [1]); 90% at MARK1 (setting [1]); 82% at SIK3 (setting [1]); 35% on ASK1 (setting [1]); 61% on CSK (setting [1]). Moreover, the remaining activity at 100 µM on EPH-B1 (setting [1]) is 91%.

In the case of `CC(=O)Nc1nc2ccc(C#N)cc2s1` [Compound 01-94], the remaining activity at 100 µM at MAPKAP-K2 (setting [1]) is 65%; on DAPK1 (setting [1]) it was 41%; on MARK1 (setting [1]), 60%; on SIK3 (setting [1]), 73%; at ASK1 (setting [1]), 18%; at CSK (setting [1]), 83%. Besides, the remaining activity at 100 µM at EPH-B1 (setting [1]) is 94%.

`CC(=O)Nc1cccc(NC(=O)c2nc3ccc(O)cc3s2)c1` [Compound 03-07, N-(3-acetamidophenyl)-6-hydroxybenzo[d]thiazole-2-carboxamide]: the remaining activity at 100 µM on MAPKAP-K2 (setting [2]) came out at 51%; on DAPK1 (setting [2]) it was 28%; on MARK1 (setting [2]), 106%; at SIK3 (setting [2]), 56%; on ASK1 (setting [2]), 86%; on CSK (setting [2]) it was 105%. In addition, the remaining activity at 100 µM on EPH-B1 (setting [2]) came out at 104%.

Regarding `O=C(Nc1nc2cc(O)ccc2s1)c1ccncc1` [Compound 03-11], on MAPKAP-K2 (setting [1]), the “residual kinase activity, MAPKAP-K2” value stood at 82. The “residual kinase activity, DAPK1” value at DAPK1 (setting [1]) was determined as 62. The “residual kinase activity, MARK1” value at MARK1 (setting [1]) is recorded as 90. For the same molecule, the “residual kinase activity, SIK3” value at SIK3 (setting [1]) worked out at 99. Further, the “residual kinase activity, ASK1” value at ASK1 (setting [1]) is 79. For the same molecule, on CSK (setting [1]), the “residual kinase activity, CSK” value was determined as 94. On EPH-B1 (setting [1]), the “residual kinase activity, EPH-B1” value was 99.

Regarding `O=C(Nc1nc2ccc(O)cc2s1)c1ccccn1` [Compound 03-12], the “residual kinase activity, MAPKAP-K2” value at MAPKAP-K2 (setting [1]) came to 43. Further, the “residual kinase activity, DAPK1” value at DAPK1 (setting [1]) worked out at 25. Also, the “residual kinase activity, MARK1” value on MARK1 (setting [1]) stood at 89. In addition, at SIK3 (setting [1]), the “residual kinase activity, SIK3” value is on record as 82. For the same molecule, the “residual kinase activity, ASK1” value on ASK1 (setting [1]) stood at 70. Further, the “residual kinase activity, CSK” value on CSK (setting [1]) is 101. The “residual kinase activity, EPH-B1” value at EPH-B1 (setting [1]) turned out to be 94.

Turning to `O=C(Nc1nc2cc(O)ccc2s1)c1ccccn1` [Compound 03-13], the “residual kinase activity, MAPKAP-K2” value on MAPKAP-K2 (setting [1]) is recorded as 98. At DAPK1 (setting [1]), the “residual kinase activity, DAPK1” value worked out at 58. Besides, the “residual kinase activity, MARK1” value on MARK1 (setting [1]) amounted to 99. Besides, the “residual kinase activity, SIK3” value on SIK3 (setting [1]) is 96. For the same molecule, on ASK1 (setting [1]), the “residual kinase activity, ASK1” value came to 88. The “residual kinase activity, CSK” value at CSK (setting [1]) is recorded as 95. The “residual kinase activity, EPH-B1” value at EPH-B1 (setting [1]) is recorded as 98.

On to `COc1ccc2sc(NC(C)=O)nc2c1` [Compound 03-21], for which the remaining activity at 100 µM was 108% on MAPKAP-K2 (setting [1]); 79% at DAPK1 (setting [1]); 98% on MARK1 (setting [1]); 121% at SIK3 (setting [1]); 97% at ASK1 (setting [1]); 104% at CSK (setting [1]). In addition, the remaining activity at 100 µM on EPH-B1 (setting [1]) worked out at 99%.

With `CC(=O)Nc1nc2ccccc2s1` [Compound 03-32], the “residual kinase activity, MAPKAP-K2” value on MAPKAP-K2 (setting [1]) was determined as 102. Further, at DAPK1 (setting [1]), the “residual kinase activity, DAPK1” value came out at 89. Further, at MARK1 (setting [1]), the “residual kinase activity, MARK1” value is given as 77. Further, at SIK3 (setting [1]), the “residual kinase activity, SIK3” value is on record as 89. Besides, at ASK1 (setting [1]), the “residual kinase activity, ASK1” value came out at 66. For the same molecule, the “residual kinase activity, CSK” value at CSK (setting [1]) is 83. The “residual kinase activity, EPH-B1” value at EPH-B1 (setting [1]) amounted to 97.

As to `O=C(Nc1nc2cc(O)ccc2s1)c1cccnc1` [Compound 03-33], the “residual kinase activity, MAPKAP-K2” value at MAPKAP-K2 (setting [1]) worked out at 109. Further, the “residual kinase activity, DAPK1” value on DAPK1 (setting [1]) is 82. The “residual kinase activity, MARK1” value on MARK1 (setting [1]) was 103. Moreover, at SIK3 (setting [1]), the “residual kinase activity, SIK3” value came to 92. Besides, the “residual kinase activity, ASK1” value on ASK1 (setting [1]) was 51. Besides, the “residual kinase activity, CSK” value on CSK (setting [1]) stood at 88. The “residual kinase activity, EPH-B1” value at EPH-B1 (setting [1]) is 104.
